Results published in PubChem BioAssay AID248 (DTP/NCI, 2004).
Values joined by “and” are separate entries in the source; they are usually repeats but may differ in a detail not shown here. Equal values may be shown once. Toxic doses and inconclusive results are not listed. Rule as the data show it: active = T/C of 150% or more; inactive = T/C below 125%.

System: L1210 leukemia ip in BDF1 mice, survival T/C
Assay: NCI In Vivo Anticancer Drug Screen. Data for tumor model L1210 Leukemia (intraperitoneal) in B6D2F1 (BDF1) mice
Details: endpoint: mean survival time, higher = longer survival
Procedure, shortened: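 In this screen, tumor-bearing mice given compound are compared to those given vehicle, and their survival values are reported as a treated-to-control quotient.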

[1] = dose: 100.0 mg/kg/injection, schedule: Q01DX009 (ip), vehicle: saline with Tween-80
[2] = dose: 100.0 mg/kg/injection, schedule: Q04DX003 (ip), vehicle: saline with Tween-80
[3] = dose: 200.0 mg/kg/injection, schedule: Q01DX009 (ip), vehicle: saline with Tween-80
[4] = dose: 200.0 mg/kg/injection, schedule: Q04DX003 (ip), vehicle: saline with Tween-80
[5] = dose: 400.0 mg/kg/injection, schedule: Q01DX009 (ip), vehicle: saline with Tween-80
[6] = dose: 400.0 mg/kg/injection, schedule: Q04DX003 (ip), vehicle: saline with Tween-80
[7] = dose: 100.0 mg/kg/injection, schedule: Q01DX001 (ip), vehicle: saline
[8] = dose: 100.0 mg/kg/injection, schedule: Q01DX009 (ip), vehicle: saline
[9] = dose: 200.0 mg/kg/injection, schedule: Q01DX001 (ip), vehicle: saline
[10] = dose: 400.0 mg/kg/injection, schedule: Q01DX001 (ip), vehicle: saline

Measured: T/C

O=C=NCCCl
inactive: dose: 0.5 mg/kg/injection, schedule: Q01DX001 (ip), vehicle: propolene glycol 101 % of control | dose: 1.0 mg/kg/injection, schedule: Q01DX001 (ip), vehicle: propolene glycol 90 % of control | dose: 2.0 mg/kg/injection, schedule: Q01DX001 (ip), vehicle: propolene glycol 89 % of control | dose: 3.0 mg/kg/injection, schedule: Q01DX001 (ip), vehicle: propolene glycol 89 % of control | dose: 4.0 mg/kg/injection, schedule: Q01DX001 (ip), vehicle: propolene glycol 92 % of control | dose: 6.0 mg/kg/injection, schedule: Q01DX001 (ip), vehicle: propolene glycol 89 % of control | dose: 6.5 mg/kg/injection, schedule: Q01DX001 (ip), vehicle: olive oil, sesame oil, peanut oil 98 % of control | dose: 8.0 mg/kg/injection, schedule: Q01DX001 (ip), vehicle: propolene glycol 92 % of control | dose: 12.5 mg/kg/injection, schedule: Q01DX001 (ip), vehicle: propolene glycol 95 % of control | dose: 12.5 mg/kg/injection, schedule: Q01DX009 (sc), vehicle: olive oil, sesame oil, peanut oil 95 % of control | dose: 13.0 mg/kg/injection, schedule: Q01DX001 (ip), vehicle: olive oil, sesame oil, peanut oil 104 % of control | dose: 25.0 mg/kg/injection, schedule: Q01DX001 (ip), vehicle: propolene glycol 91 % of control | dose: 25.0 mg/kg/injection, schedule: Q01DX009 (sc), vehicle: olive oil, sesame oil, peanut oil 103 % of control | dose: 26.0 mg/kg/injection, schedule: Q01DX001 (ip), vehicle: olive oil, sesame oil, peanut oil 96 % of control | dose: 40.0 mg/kg/injection, schedule: Q01DX001 (ip), vehicle: olive oil, sesame oil, peanut oil 102 % of control | dose: 50.0 mg/kg/injection, schedule: Q01DX009 (sc), vehicle: olive oil, sesame oil, peanut oil 97 % of control | dose: 60.0 mg/kg/injection, schedule: Q01DX001 (ip), vehicle: olive oil, sesame oil, peanut oil 98 % of control | dose: 93.0 mg/kg/injection, schedule: Q01DX001 (ip), vehicle: olive oil, sesame oil, peanut oil 100 % of control | dose: 100.0 mg/kg/injection, schedule: Q04DX003 (sc), vehicle: olive oil, sesame oil, peanut oil 97 % of control | dose: 125.0 mg/kg/injection, schedule: Q01DX001 (ip), vehicle: olive oil, sesame oil, peanut oil 106 % of control | dose: 187.0 mg/kg/injection, schedule: Q01DX001 (ip), vehicle: olive oil, sesame oil, peanut oil 98 % of control | dose: 250.0 mg/kg/injection, schedule: Q01DX001 (ip), vehicle: olive oil, sesame oil, peanut oil 98 % of control | dose: 250.0 mg/kg/injection, schedule: Q01DX001 (ip), vehicle: propolene glycol 113 % of control | dose: 375.0 mg/kg/injection, schedule: Q01DX001 (ip), vehicle: olive oil, sesame oil, peanut oil 104 % of control | dose: 500.0 mg/kg/injection, schedule: Q01DX001 (ip), vehicle: olive oil, sesame oil, peanut oil 93 % of control

S=C1N(C2CCCCC2)CCN1C1CCCCC1
inactive: dose: 100.0 mg/kg/injection, schedule: Q04DX002 (ip), vehicle: Klucel (hydroxypropylcellulose) (HPC) 97 % of control

CCOc1ccc(NC(=S)NC(=O)c2cccc([N+](=O)[O-])c2)cc1
inactive: dose: 100.0 mg/kg/injection, schedule: Q01DX001 (ip), vehicle: saline with Tween-80 93 % of control | [1] 92 % of control and 95 % of control | dose: 100.0 mg/kg/injection, schedule: Q04DX002 (ip), vehicle: saline with Tween-80 93 % of control and 95 % of control | [2] 98 % of control | dose: 200.0 mg/kg/injection, schedule: Q01DX001 (ip), vehicle: saline with Tween-80 101 % of control | [3] 92 % of control and 98 % of control | dose: 200.0 mg/kg/injection, schedule: Q04DX002 (ip), vehicle: saline with Tween-80 97 % of control and 107 % of control | [4] 96 % of control | dose: 400.0 mg/kg/injection, schedule: Q01DX001 (ip), vehicle: saline with Tween-80 102 % of control | [5] 97 % of control and 106 % of control | dose: 400.0 mg/kg/injection, schedule: Q04DX002 (ip), vehicle: saline with Tween-80 104 % of control and 107 % of control | [6] 91 % of control

CC(C)=CCNc1ncnc2c1ncn2C1OC(CO)C(O)C1O (stereo unspecified)
inactive: dose: 50.0 mg/kg/injection, schedule: Q01DX001 (ip), vehicle: saline 98 % of control | dose: 50.0 mg/kg/injection, schedule: Q01DX009 (ip), vehicle: saline 118 % of control | dose: 50.0 mg/kg/injection, schedule: Q01DX015 (ip), vehicle: saline 108 % of control | [7] 93 % of control | [8] 110 % of control | dose: 100.0 mg/kg/injection, schedule: Q04DX003 (ip), vehicle: Klucel (hydroxypropylcellulose) (HPC) 93 % of control | [2] 96 % of control | dose: 150.0 mg/kg/injection, schedule: Q01DX015 (ip), vehicle: saline 113 % of control | [9] 96 % of control | dose: 200.0 mg/kg/injection, schedule: Q04DX003 (ip), vehicle: Klucel (hydroxypropylcellulose) (HPC) 104 % of control | [4] 102 % of control

CSCCOC(=O)C1C2CCC(O2)C1C(=O)O (stereo unspecified)
inactive: dose: 12.5 mg/kg/injection, schedule: Q04DX003 (ip), vehicle: Klucel (hydroxypropylcellulose) (HPC) 104 % of control

COC/C(C)=C/Cl
inactive: dose: 100.0 mg/kg/injection, schedule: Q01DX001 (ip), vehicle: acetone 102 % of control | dose: 200.0 mg/kg/injection, schedule: Q01DX001 (ip), vehicle: acetone 100 % of control | dose: 400.0 mg/kg/injection, schedule: Q01DX001 (ip), vehicle: acetone 96 % of control

CSc1cccc[n+]1[O-]
inactive: [8] 105 % of control | dose: 100.0 mg/kg/injection, schedule: Q04DX002 (ip), vehicle: saline 103 % of control and 108 % of control | dose: 200.0 mg/kg/injection, schedule: Q01DX009 (ip), vehicle: saline 108 % of control | dose: 200.0 mg/kg/injection, schedule: Q04DX002 (ip), vehicle: saline 105 % of control | dose: 400.0 mg/kg/injection, schedule: Q01DX009 (ip), vehicle: saline 101 % of control | dose: 400.0 mg/kg/injection, schedule: Q04DX002 (ip), vehicle: saline 108 % of control and 118 % of control

OC1CCCCC1[n+]1ccccc1 (stereo unspecified) (tested in a mixture with another compound)
inactive: [7] 103 % of control | [9] 88 % of control | [10] 101 % of control

Cc1noc(/N=C/c2ccccc2)c1C
inactive: dose: 100.0 mg/kg/injection, schedule: Q01DX009 (ip), vehicle: other 95 % of control | dose: 100.0 mg/kg/injection, schedule: Q04DX003 (ip), vehicle: saline 103 % of control | dose: 200.0 mg/kg/injection, schedule: Q01DX009 (ip), vehicle: other 102 % of control | dose: 200.0 mg/kg/injection, schedule: Q04DX003 (ip), vehicle: saline 103 % of control | dose: 400.0 mg/kg/injection, schedule: Q01DX009 (ip), vehicle: other 107 % of control | dose: 400.0 mg/kg/injection, schedule: Q04DX003 (ip), vehicle: saline 96 % of control

COc1ccc(C(=O)/C(C)=N/O)cc1
inactive: [7] 103 % of control | [9] 103 % of control | [10] 101 % of control

COc1cc2c(c(OC)c1OC)-c1ccc(SC)c(=O)cc1C(N=Cc1ccccc1)CC2 (stereo unspecified)
inactive: [2] 106 % of control | [4] 90 % of control

CCCCCCCCCC(C)(O)C#CC(C)(O)CCCCCCCCC (stereo unspecified)
inactive: dose: 50.0 mg/kg/injection, schedule: Q01DX001 (ip), vehicle: carboxymethylcellulose (CMC) 93 % of control | dose: 50.0 mg/kg/injection, schedule: Q04DX003 (ip), vehicle: carboxymethylcellulose (CMC) 91 % of control | dose: 100.0 mg/kg/injection, schedule: Q01DX001 (ip), vehicle: carboxymethylcellulose (CMC) 95 % of control | dose: 100.0 mg/kg/injection, schedule: Q04DX003 (ip), vehicle: carboxymethylcellulose (CMC) 89 % of control | dose: 200.0 mg/kg/injection, schedule: Q01DX001 (ip), vehicle: carboxymethylcellulose (CMC) 91 % of control | dose: 200.0 mg/kg/injection, schedule: Q04DX003 (ip), vehicle: carboxymethylcellulose (CMC) 89 % of control | dose: 400.0 mg/kg/injection, schedule: Q01DX001 (ip), vehicle: carboxymethylcellulose (CMC) 100 % of control

O=C(O)c1c[nH]n2c(=S)ncnc12
inactive: dose: 50.0 mg/kg/injection, schedule: Q01DX009 (ip), vehicle: saline with Tween-80 97 % of control | [1] 96 % of control and 103 % of control | [2] 96 % of control | [3] 102 % of control and 103 % of control | [4] 94 % of control | [5] 101 % of control

CCCCN(CCCC)CC(O)c1cnc2c(Cl)cc(Cl)cc2c1Cl (stereo unspecified)
inactive: [1] 101 % of control | [2] 100 % of control | [3] 102 % of control | [4] 102 % of control | [6] 108 % of control
